Reference: ChEMBL document CHEMBL2094260, “Malaria Box Tuberculosis Screening Data”
Values after ≈ are worked out from the molar mass of the structure shown.

What was measured:
[1] = test system: Mycobacterium tuberculosis; assay: MMV: Screen against Mtb, single point, non replicating, at 25uM; type: functional
[2] = test system: Mycobacterium tuberculosis; assay: MMV: Screen against Mtb, single point, replicating, at 25uM; type: functional
[3] = test system: Mycobacterium tuberculosis; assay: MMV: CRC and MIC90 against Mtb (non replicating); type: functional
[4] = test system: Mycobacterium tuberculosis; assay: MMV: CRC and MIC90 against Mtb (replicating); type: functional
[5] = MMV: Cytotoxicity CRC and LD50 against HepG2; type: toxicity, cell-based; conditions: human, HepG2 cells; read-out: LD50 (the source's name)

| SMILES | inhibition at 25 µM [1] [%] | inhibition at 25 µM [2] [%] | MIC90 [3] [µM] | MIC90 [4] [µM] | CC50 [5] [µM] |
| --- | --- | --- | --- | --- | --- |
| COc1ccc(Nc2nc(N/N=C/c3ccc(O)cc3)nc(Nc3ccc([N+](=O)[O-])cc3)n2)cc1 | 31.8 | 15.3 | – | – | – |
| Nc1nc(Nc2cccc(F)c2)nc2ccccc12 | 9.12 | 13.4 | – | – | – |
| COc1ccc(/C=C2/SC(=Nc3ccccc3)NC2=O)cc1 | 24.4 | 15.9 | – | – | – |
| c1ccc(/C2=N/c3ccccc3/N=C(/c3ccccc3)c3ccccc32)cc1 | 23.5 | 22.3 | – | – | – |
| COc1ccc(-c2nc(N3CCN(C(=O)C4CCCCC4)CC3)c3c4c(sc3n2)CCCC4)cc1 | 12.7 | 14.2 | – | – | – |
| O=C(NC1CCN(Cc2ccccc2)CC1)c1cc2nc(-c3ccc(Cl)s3)cc(C(F)(F)F)n2n1 | 15.3 | 20.1 | – | – | – |
| Cc1sc(NC(=O)c2ccccc2)c(C(c2cccs2)N2CCN(c3ccccc3)CC2)c1C (centres undefined) | 13 | 7.6 | – | – | – |
| Cc1sc(NC(=O)c2ccco2)c(C(c2cccnc2)N2CCC(Cc3ccccc3)CC2)c1C (centres undefined) | -1.7 | 21.7 | – | – | – |
| CCOC(=O)c1c(C)n(-c2ccccc2)c2ccc(OC(=O)c3cc(OC)c(OC)c(OC)c3)cc12 | 6.46 | 22.2 | – | – | – |
| COc1cc(C(=O)Nc2nc3c(cc4c5c(cccc53)CC4)s2)cc(OC)c1OC | 17.8 | -3.53 | – | – | – |
| COc1ccc(CCN2C(=O)c3[nH]nc(-c4cc(Cl)c(C)cc4O)c3C2c2ccccc2F)cc1 (centres undefined) | 16.2 | -0.705 | – | – | – |
| N#Cc1nc(Cc2cccc3ccccc23)oc1N1CCN(C(c2ccccc2)c2ccccc2)CC1 | 18.9 | 7.13 | – | – | – |
| O=C(NNc1cc(N2CCCC2)nc(N2CCCC2)n1)c1ccccc1 | 30.6 | 12 | – | – | – |
| COC(=O)c1ccc(Cl)c2c1C1C=CCC1C(c1cccc3ccccc13)N2 (centres undefined) | -4.9 | 12.1 | – | – | – |
| COc1ccc(C2c3ccc4ccccc4c3Oc3ncn(CCCn4ccnc4)c(=N)c32)cc1OC (centres undefined) | 11.1 | 46.8 | – | – | – |
| CN(N=O)C1=C(NC2CCCCC2)C(=O)c2ccccc2C1=O | 7.53 | -2.12 | – | – | – |
| O=C(CCc1ccccc1)c1ccccc1OCC(O)CN1CCCCC1 (centres undefined) | 0.25 | 12.9 | – | – | – |
| O=C(Nc1ccc(Br)cc1)Nc1cccc(Cl)c1 | 38.6 | 59.6 | > 100 | 44.6 (≈ 14.5 µg/mL) | 18.6 |
| Cc1ccc(Nc2nc(-c3ccccn3)cs2)cc1 | 23 | 59.3 | > 100 | 50.7 (≈ 13.6 µg/mL) | – |
| OC1=C2C(=Nc3ccccc3SC2c2ccccc2)c2ccccc21 (centres undefined) | 14.1 | 8.39 | – | – | – |
| COc1cc(C(=O)Nc2ccc(-c3nc4ccccc4[nH]3)cc2)cc(OC)c1OC | 19.1 | 27 | – | – | – |
| Cc1nc2ccccc2c(O)c1CC=C(Cl)Cl | 0.782 | 91 | > 100 | 14.3 (≈ 3.83 µg/mL) | 98.8 |
| CCOc1ccc(N2C(N)=NC(N)=NC2(C)C)cc1 | 8.77 | -0.705 | – | – | – |
| COc1cccc(Nc2nc(N)c3ccccc3n2)c1 | 11.4 | 6.04 | – | – | – |
| Cc1ccc(C(=O)c2oc3ccc4c(C)cc(=O)oc4c3c2C)cc1 | 5.4 | 1.18 | – | – | – |

| SMILES | inhibition at 25 µM [1] [%] | inhibition at 25 µM [2] [%] | MIC90 [3] [µM] | MIC90 [4] [µM] | CC50 [5] [µM] |
| --- | --- | --- | --- | --- | --- |
| COC(=O)c1ccc(C2C3=C(O)CC(c4ccc(F)cc4)CC3=Nc3ccccc3N2C(=O)c2ccccc2)cc1 (centres undefined) | 18.9 | 28.3 | – | – | – |
| CCCCCCc1cc2cc(-c3csc(C=Cc4ccccc4)n3)c(=O)oc2cc1O | 9.83 | -0.392 | – | – | – |
| O=C(CCl)NCCOc1ccc(Cl)cc1Cl | 25.3 | 35 | – | – | – |
| Oc1ccc(-c2nc(-c3ccc4oc5ccc(-c6[nH]c(-c7ccc(O)cc7)nc6-c6ccccc6)cc5c4c3)c(-c3ccccc3)[nH]2)cc1 | 13 | 19.2 | – | – | – |
| CC(Oc1ccc(NC(=O)c2cccs2)cc1)C(=O)c1ccc(Cl)cc1 (centres undefined) | -0.638 | 2.74 | – | – | – |
| CCOc1ccc(CN2CCN(CC(O)COc3ccc(OCC(O)CN4CCN(Cc5ccc(OCC)cc5)CC4)cc3)CC2)cc1 (centres undefined) | 17.5 | 13.2 | – | – | – |
| CCCCNc1nc(NC(C)(C)C)nc(NC(C)(C)C)n1 | 42.1 | 32.8 | – | – | – |
| COc1ccc(CNC(=O)c2cc3c(=O)n4ccccc4nc3n(CCc3ccccc3)c2=N)cc1 | 6.82 | 20.3 | – | – | – |
| O=C(NC1CCN(Cc2ccccc2)CC1)c1cc(C(=O)NC2CCN(Cc3ccccc3)CC2)cc(C(=O)NC2CCN(Cc3ccccc3)CC2)c1 | 3.44 | 7.92 | – | – | – |
| COc1ccc(CCn2c(=N)c(C(=O)NCc3cccnc3)cc3c(=O)n4cccc(C)c4nc32)cc1 | 8.77 | 4.47 | – | – | – |
| CC(=O)c1sc(NC(=O)Nc2ccc(C)cc2C)nc1C | 6.64 | 10.3 | – | – | – |
| COc1ccc(-c2cn3c(C(=O)Nc4ccccc4Cl)c(-c4ccccc4)c4c3n2CCCC4)cc1 | 2.56 | 8.39 | – | – | – |
| Cn1c(=O)n(C)c2cc(CNCCNc3ccnc4cc(Cl)ccc34)ccc21 | 8.95 | 11.4 | – | – | – |
| Cn1c(C(=O)c2cccc3ccccc23)nc2ccccc21 | 31.5 | 4.31 | – | – | – |
| CCN(CC)CCNc1ccnc2cc3ccccc3cc12 | 0.0721 | 0.862 | – | – | – |
| COc1ccc(C=C2SC(Nc3ccc(F)cc3)=NC2=O)c(OC)c1 | 7.53 | 23.3 | – | – | – |
| Oc1ccc2ccccc2c1CNc1nc2ccccc2[nH]1 | 35.9 | 76.1 | – | 74.1 (≈ 21.4 µg/mL) | 14.1 |
| O=C(Nc1ccc(-c2nc3ccccc3[nH]2)cc1)c1ccc(Cl)c(Cl)c1 | 26.5 | 9.8 | – | – | – |
| O=C(Nc1ccc(-c2nc3cc(NC(=O)c4ccc(Cl)cc4)ccc3[nH]2)cc1)c1ccc(Cl)cc1 | 17.6 | 11.7 | – | – | – |
| COc1ccccc1C(=O)ON=C(N)Cc1cccc2ccccc12 | 32.7 | 52.3 | – | – | – |
| COc1ccc(C(=O)C(CCC(CNC(C)(C)C)C(=O)c2ccc(OC)cc2)CNC(C)(C)C)cc1 (centres undefined) | 21 | 10.9 | – | – | – |
| Cc1c(C)n(Cc2ccc(F)cc2)c2ccc(C(=O)NCc3ccco3)cc12 | 11.7 | 69.5 | – | – | > 100 |
| CCOc1cc2c(cc1OCC)C(c1cc(Cl)ccc1O)NCC2 (centres undefined) | -6.67 | 7.45 | – | – | – |
| COc1cc(C(=O)ON=C(N)Cc2cccc3ccccc23)cc(OC)c1OC | 24.2 | 59.3 | – | – | – |
| CN1C=C(c2ccc3ccccc3n2)C(c2c[nH]c3ccccc23)c2ccccc21 (centres undefined) | 20.1 | 19.7 | – | – | – |

| SMILES | inhibition at 25 µM [1] [%] | inhibition at 25 µM [2] [%] | MIC90 [3] [µM] | MIC90 [4] [µM] | CC50 [5] [µM] |
| --- | --- | --- | --- | --- | --- |
| Oc1c(C(Nc2ccccn2)c2cccc(Oc3ccccc3)c2)ccc2cccnc12 (centres undefined) | 11.8 | -15.4 | – | – | – |
| COc1cc(-c2nc(-c3ccccc3)c(-c3ccccc3)[nH]2)cc(OC)c1O | 18 | 17 | – | – | – |
| OC(CNC1CCCCC1)Cn1c2ccc(I)cc2c2cc(I)ccc21 (centres undefined) | 10.9 | 16.9 | – | – | – |
| CCc1ccc(CNCC(O)c2ccccc2)cc1 (centres undefined) | 4.33 | 35.5 | – | – | – |
| O=C(Nc1nc(-c2ccccn2)cs1)c1ccccc1Br | 84.5 | 95.3 | 58.2 (≈ 21 µg/mL) | 48.7 (≈ 17.5 µg/mL) | – |
| CCn1c2c(c(=N)c3c1CCC3)CCCC2 | 8.24 | 10.1 | – | – | – |
| O=C(Cc1ccccc1)NC(c1ccc(Cl)cc1)c1c(O)ccc2ccccc12 (centres undefined) | -0.46 | 12 | – | – | – |
| CCOc1ccc(Nc2ccnc3cc(Cl)ccc23)cc1 | 8.59 | 54.6 | – | – | – |
| Cc1cccc(N2C(=O)C3C(C2=O)C2(c4ccccc4)C(=O)C3(c3ccccc3)C(c3ccc4c(c3)OCO4)=C2c2ccc3c(c2)OCO3)c1 (centres undefined) | 16.4 | 23.1 | – | – | – |
| Oc1ccc(Br)cc1CN1CCN(Cc2ccc(Cl)cc2)CC1 | 17.6 | 19.7 | – | – | – |
| COc1cc2c3cc1Oc1c(OC)c(OC)cc4c1C(Cc1ccc(O)c(c1)Oc1ccc(cc1)CC3N(C)CC2)N(C)CC4 (centres undefined) | 18.5 | 3.53 | – | – | – |
| Cc1ccc(C)c(-c2csc(Nc3ccc(C)c(C)c3)n2)c1 | 9.48 | 12.5 | – | – | – |
| COc1ccc2sc(N(Cc3cccnc3)C(=O)c3ccc(C#N)cc3)nc2c1 | 5.22 | 15 | – | – | – |
| CC1CC2=C(CC1CNCCCN(C)C)C(C)(C)CCC2 (centres undefined) | -0.993 | 42.2 | – | – | – |
| CN(C)c1ccc(N=Cc2ccc(N3CCOCC3)cc2)cc1 | -1.53 | 38.8 | – | – | – |
| CCOC(=O)c1cnc2ccc(OC)cc2c1NCc1ccccc1 | 23 | 40.2 | – | – | – |
| CCOC(=O)C1=CN(C)C=C(C(=O)OCC)C1c1cc(Br)c(OCC)c(OC)c1 | 10.7 | -1.96 | – | – | – |
| CC(C)(C)c1ccc(C2CC3=Nc4ccccc4N(C(=O)c4ccccc4Cl)C(c4ccc(F)cc4)C3=C(O)C2)cc1 (centres undefined) | 14.4 | 1.49 | – | – | – |
| CN1CCN(c2nc(Nc3ccc(O)cc3)nc3ccccc23)CC1 | 6.46 | 8.7 | – | – | – |
| CCCCc1c(CCC)c(=N)c2ccccc2n1C | -5.96 | 6.04 | – | – | – |
| Nc1ccn([C@@H]2O[C@H](CO)[C@@H](O)[C@H]2O)c(=O)n1 [CYTIDINE] | 14.6 | -3.06 | – | – | – |
| O=C(Nc1cccc(C2=NCCN2)c1)Nc1cccc(C2=NCCN2)c1 [IMIDOCARB] | 11.1 | 5.56 | – | – | – |
| CN(C)c1ccc(C(O)(c2ccc(N(C)C)cc2)c2ccc(N(C)C)cc2)cc1 [METHYLROSANILINE] | 59.8 | 28.6 | – | – | – |
